Laboratory results taken from patent US20080182895A1 (priority 2006, published 2008).

Key:
[1] = molecular target: T1, HCV NS5B enzyme BB7-I363V (Hepatitis C virus genotype 1b, UniProt Q9WMX2, I2782V); assay: NS5B polymerase biochemical assay
T1 construct: To prepare expression plasmid NS5B-BB7dCT21-His(1363V); His (C); made in house; host or cells: E. coli
Experimental: All NS5B enzymes were expressed and purified according to the protocol for NS5B-BB7dCT21-His as described (Howe et al. (2004) Antimicrobial Agents Chem. 48:4813-21). Briefly, expression plasmids were transformed into E. coli cells and NS5B expression was initiated by the addition of isopropyl-beta-D-thiogalactopyranoside (IPTG). After 4 to 6 hours of incubation the cells were harvested and lysed. NS5B enzymes were purified by chromatography using a nickel affinity column (Talon, B D Biosciences, Clontech Laboratories, Inc., Mountain View, Calif.)) followed by a cation exchange column (Poros H S, Applied Biosystems, Foster City, Calif.).

1b, BB7-M414V replicon = assay: Replicon variant 3-day assay; type: cell-based, Hepatitis C virus
Experimental: (§1) pBB7-replicon variant DNAs were linearized with Sca I, and in vitro transcription was performed using Ambion's […]® T7 High Yield Transcription kit (Austin, Tex.). Purified RNA transcripts were electroporated into Huh-7 cells in quadruplicates using a Biorad GENE PULSER® Electroporation System (Setting: 270V, 950 μF) (Hercules, Calif.). Stably transfected replicon variant cell lines were initially selected with 0.25 mg/ml G418 and stepped up to 1 mg/ml before further testing. One cell plate was stained with Crystal Violet to visualize the number of colonies and determine the colony formation efficiency. Individual cell clones from each plate were pooled and expanded for drug susceptibility testing.
(§2) The contribution of individual amino acid changes on drug resistance was assessed in replicon variants containing single amino acid mutations in NS5B in the background of the genotype 1b, BB7 adaptive replicon (Blight et al. (2000) Science 290:1972-74).
(§3) Drug susceptibility of the replicon-containing cells to various compounds was evaluated as described previously (Howe et al. (2004) Antimicrobial Agents Chem. 48:4813-21). Briefly, cells were treated with increasing concentrations of compounds in medium containing 2% FCS and no G418 for three days at 37° C. and 5% CO2. After incubation, total RNA from the replicon-containing cells was isolated. The levels of HCV, glyceraldehyde 3-phosphate dehydrogenase (GAPDH) and ribosomal (rRNA) RNAs were quantified using TAQMAN® (PE Applied Biosystems, Foster City, Calif.) reverse transcriptase PCR reactions. The amounts of HCV, 18S ribosomal, and GAPDH RNAs in each sample were estimated by comparing the number of cycles during the exponential phase of the PCR amplification with those in the corresponding standard curves. HCV RNA standards used for the construction of the standard curve were prepared by extracting the total RNA from the Clone A cells. The RNA sample was sent to National Genetics Institute to quantify HCV RNA. Total RNA extracted from Clone A cells was quantified by O.D.260 measurement and used for construction of the standard curves of rRNA and GAPDH. The concentrations of the compounds that inhibit 50% of the HCV RNA level (EC50) were determined using the MDL® LIFE SCIENCE WORKBENCH® (LSW) Data Analysis software (MDL Information Systems, San Leandro, Calif.) in Microsoft EXCEL®. The amounts of HCV or GAPDH RNAs in the samples were expressed as HCV RNA (copies) or GAPDH (ng), respectively, per μg of total RNA using rRNA as a marker for total RNA measurement.

1b, BB7-C316F replicon = assay: Replicon variant 3-day assay; type: cell-based, Hepatitis C virus
Experimental: as §1, §2, §3

1b, BB7-L314F replicon = assay: Replicon variant 3-day assay; type: cell-based, Hepatitis C virus
Experimental: as §1, §2, §3

1b, BB7-C316S replicon = assay: Replicon variant 3-day assay; type: cell-based, Hepatitis C virus
Experimental: as §1, §2, §3

1b, BB7-M414I replicon = assay: Replicon variant 3-day assay; type: cell-based, Hepatitis C virus
Experimental: as §1, §2, §3

1b, BB7-I363V replicon = assay: Replicon variant 3-day assay; type: cell-based, Hepatitis C virus
Experimental: as §1, §2, §3

1b, BB7-S368F replicon = assay: Replicon variant 3-day assay; type: cell-based, Hepatitis C virus
Experimental: as §1, §2, §3

1b, BB7-C316Y replicon = assay: Replicon variant 3-day assay; type: cell-based, Hepatitis C virus; conditions: 1b
Experimental: as §1, §2, §3

1b, BB7-S365A replicon = assay: Replicon variant 3-day assay; type: cell-based, Hepatitis C virus
Experimental: as §1, §2, §3

1b, BB7-S365T replicon = assay: Replicon variant 3-day assay; type: cell-based, Hepatitis C virus
Experimental: as §1, §2, §3

1b, BB7-M414T replicon = assay: Replicon variant 3-day assay; type: cell-based, Hepatitis C virus
Experimental: as §1, §2, §3

[2] = tested on: GAPDH mRNA in Clone A cells; type: cell-based, human; conditions: 0.1 and 1 μM HCV-796, throughout the 16-day period

T1 sequence (Q9WMX2 2420-2989 I2782V): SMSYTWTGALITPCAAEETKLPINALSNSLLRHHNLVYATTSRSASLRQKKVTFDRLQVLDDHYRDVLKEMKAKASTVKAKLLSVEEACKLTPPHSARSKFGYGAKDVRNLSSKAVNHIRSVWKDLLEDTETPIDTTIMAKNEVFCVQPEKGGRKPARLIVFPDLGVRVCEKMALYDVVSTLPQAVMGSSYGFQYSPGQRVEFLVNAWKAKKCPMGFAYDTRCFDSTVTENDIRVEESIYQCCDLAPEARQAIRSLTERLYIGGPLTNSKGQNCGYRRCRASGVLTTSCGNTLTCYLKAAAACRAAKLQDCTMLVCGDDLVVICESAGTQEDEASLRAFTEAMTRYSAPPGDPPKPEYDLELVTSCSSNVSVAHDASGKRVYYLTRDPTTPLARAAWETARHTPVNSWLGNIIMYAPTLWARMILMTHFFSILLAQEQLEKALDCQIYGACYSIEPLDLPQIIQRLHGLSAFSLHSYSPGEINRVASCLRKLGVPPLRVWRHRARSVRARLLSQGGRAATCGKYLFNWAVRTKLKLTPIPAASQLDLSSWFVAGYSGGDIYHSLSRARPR

Question: For CNC(=O)c1c(-c2ccc(F)cc2)oc2cc(N(CCO)S(C)(=O)=O)c(C3CC3)cc12 [HCV-796, 5-cyclopropyl-2-(4-fluorophenyl)-6-[(2-hydroxyethyl)(methylsulfonyl)amino]-N-methyl-1-benzofuran-3-carboxamide], which IC50 ([1]; BB7-I363V enzyme) is on record?
Answer: 60 ± 10 nM

Question: And the “Susceptibility Relative to Wild type Enzyme” value ([1]; BB7-I363V vs BB7 (C316))?
Answer: 1.5-fold less

Question: And the “Fold Resistance” value (1b, BB7-M414V replicon; BB7-M414V vs 1b, BB7)?
Answer: 3 fold

Question: What about the “Viral Load Reduction” value (1b, BB7-M414V replicon; BB7-M414V, 2240 nM HCV-796, 3-day assay) of the same molecule?
Answer: 1.5 ± 0.1 log

Question: And the EC50 (1b, BB7-M414V replicon; Hepatitis C virus, 72 h, BB7-M414V, 3-day assay, read-out: HCV RNA EC50 (nM) ± SD)?
Answer: 8 ± 1 nM

Question: What about the “Fold Resistance” value (1b, BB7-C316F replicon; BB7-C316F vs 1b, BB7) of the same molecule?
Answer: 130 fold

Question: What about the “Viral Load Reduction” value (1b, BB7-C316F replicon; BB7-C316F, 2240 nM HCV-796, 3-day assay) of the same molecule?
Answer: 0.8 ± 0.5 log

Question: What about the EC50 (1b, BB7-C316F replicon; Hepatitis C virus, 72 h, BB7-C316F, 3-day assay, read-out: HCV RNA EC50 (nM) ± SD) of the same molecule?
Answer: 392 nM

Question: What about the “Fold Resistance” value (1b, BB7-L314F replicon; 1b, BB7-L314F vs 1b, BB7) of the same molecule?
Answer: 1 fold

Question: What about the “Viral Load Reduction” value (1b, BB7-L314F replicon; 1b, BB7-L314F, 2240 nM HCV-796, 3-day assay) of the same molecule?
Answer: 1.6 ± 0.3 log

Question: What about the EC50 (1b, BB7-L314F replicon; Hepatitis C virus, 72 h, 1b, BB7-L314F, 3-day assay, read-out: HCV RNA EC50 (nM) ± SD) of the same molecule?
Answer: 4 ± 2 nM

Question: And the “change of susceptibility to HCV-796 (in words)” value (1b, BB7-L314F replicon; L314F replicon vs wild type)?
Answer: did not change the susceptibility

Question: What about the “Fold Resistance” value (1b, BB7-C316S replicon; BB7-C316S vs 1b, BB7) of the same molecule?
Answer: 10 fold

Question: And the “Viral Load Reduction” value (1b, BB7-C316S replicon; BB7-C316S, 2240 nM HCV-796, 3-day assay)?
Answer: 1.3 ± 0.1 log

Question: And the EC50 (1b, BB7-C316S replicon; Hepatitis C virus, 72 h, BB7-C316S, 3-day assay, read-out: HCV RNA EC50 (nM) ± SD)?
Answer: 30 nM

Question: And the “Fold Resistance” value (1b, BB7-M414I replicon; BB7-M414I vs 1b, BB7)?
Answer: 8 fold

Question: What about the “Viral Load Reduction” value (1b, BB7-M414I replicon; BB7-M414I, 2240 nM HCV-796, 3-day assay) of the same molecule?
Answer: 1.5 ± 0.2 log

Question: What about the EC50 (1b, BB7-M414I replicon; Hepatitis C virus, 72 h, BB7-M414I, 3-day assay, read-out: HCV RNA EC50 (nM) ± SD) of the same molecule?
Answer: 23 ± 3 nM

Question: And the “Fold Resistance” value (1b, BB7-I363V replicon; BB7-I363V vs 1b, BB7)?
Answer: 5 fold

Question: And the “Viral Load Reduction” value (1b, BB7-I363V replicon; BB7-I363V, 2240 nM HCV-796, 3-day assay)?
Answer: 1.4 ± 0.1 log

Question: And the EC50 (1b, BB7-I363V replicon; Hepatitis C virus, 72 h, BB7-I363V, 3-day assay, read-out: HCV RNA EC50 (nM) ± SD)?
Answer: 16 ± 5 nM

Question: What about the “Fold Resistance” value (1b, BB7-S368F replicon; BB7-S368F vs 1b, BB7) of the same molecule?
Answer: 2 fold

Question: And the “Viral Load Reduction” value (1b, BB7-S368F replicon; BB7-S368F, 2240 nM HCV-796, 3-day assay)?
Answer: 1.4 ± 0.3 log

Question: What about the EC50 (1b, BB7-S368F replicon; Hepatitis C virus, 72 h, BB7-S368F, 3-day assay, read-out: HCV RNA EC50 (nM) ± SD) of the same molecule?
Answer: 5 ± 2 nM

Question: What about the “Fold Resistance” value (1b, BB7-C316Y replicon; BB7-C316Y vs 1b, BB7) of the same molecule?
Answer: 166 fold

Question: And the “Viral Load Reduction” value (1b, BB7-C316Y replicon; BB7-C316Y, 2240 nM HCV-796, 3-day assay)?
Answer: 0.9 ± 0.2 log

Question: And the EC50 (1b, BB7-C316Y replicon; Hepatitis C virus, 72 h, BB7-C316Y, 3-day assay, read-out: HCV RNA EC50 (nM) ± SD)?
Answer: 501 nM

Question: What about the “Fold Resistance” value (1b, BB7-S365A replicon; BB7-S365A vs 1b, BB7) of the same molecule?
Answer: 41 fold

Question: What about the “Viral Load Reduction” value (1b, BB7-S365A replicon; BB7-S365A, 2240 nM HCV-796, 3-day assay) of the same molecule?
Answer: 1.7 ± 0.1 log

Question: And the EC50 (1b, BB7-S365A replicon; Hepatitis C virus, 72 h, BB7-S365A, 3-day assay, read-out: HCV RNA EC50 (nM) ± SD)?
Answer: 124 ± 41 nM

Question: And the “Fold Resistance” value (1b, BB7-S365T replicon; BB7-S365T vs 1b, BB7)?
Answer: 212 fold

Question: And the “Viral Load Reduction” value (1b, BB7-S365T replicon; BB7-S365T, 2240 nM HCV-796, 3-day assay)?
Answer: 0.6 ± 0.1 log

Question: What about the EC50 (1b, BB7-S365T replicon; Hepatitis C virus, 72 h, BB7-S365T, 3-day assay, read-out: HCV RNA EC50 (nM) ± SD) of the same molecule?
Answer: 643 ± 168 nM

Question: And the “Fold Resistance” value (1b, BB7-M414T replicon; 1b, BB7-M414T vs 1b, BB7)?
Answer: 1 fold

Question: And the “Viral Load Reduction” value (1b, BB7-M414T replicon; 1b, BB7-M414T, 2240 nM HCV-796, 3-day assay)?
Answer: 2.0 ± 0.2 log

Question: What about the “change of susceptibility to HCV-796 (in words)” value (1b, BB7-M414T replicon; M414T replicon vs wild type) of the same molecule?
Answer: did not change the susceptibility

Question: What about the “level of housekeeping gene GAPDH mRNA” value [2] of the same molecule?
Answer: remained essentially unchanged
